Source: patent US20260223850A1, “SUBSTITUTED PYRROLIDONE COMPOUND, PREPARATION METHOD THEREFOR, COMPOSITION AND APPLICATION THEREOF” (QINGDAO KINGAGROOT CHEMICAL COMPOUND CO., LTD., priority 2023, published 2026)

Tests used:
[1] = test system: Echinochloa crusgalli; experiment: Seedling stage sealing experiment for water-seeding; assay type: in vivo; settings: 120 g a.i./ha, 15 days, fresh weight control rate
Text: (§1) The activity level criteria for plant damage (i.e., growth control rate) are as follows: • Level 9: completely dead; • Level 8: growth control rate greater than or equal to 90% and less than 100%; • Level 7: growth control rate greater than or equal to 80% and less than 90%; • Level 6: growth control rate greater than or equal to 70% and less than 80%; • Level 5: growth control rate greater than or equal to 50% and less than 70%; • Level 4: growth control rate greater than or equal to 30% and less than 50%; • Level 3: growth control rate greater than or equal to 20% and less than 30%; • Level 2: growth control rate greater than or equal to 10% and less than 20%; • Level 1: growth control rate less than 10%; • Level 0: no effect.
(§2) The above growth control rates are fresh weight control rates.
(§3) Echinochloa phyllopogon, Digitaria sanguinalis, Huaidao (rice cultivar), etc. were broadcasted on the surface of nutrition bowls filled with soil and fully covered by soil. The foregoing well-prepared nutrition bowls were then placed in a cultivation box with water filled to a suitable height to keep the soil in the nutrition bowls moist. A test compound of the present invention was individually dissolved with acetone, then diluted into solution of a certain concentration using a certain amount of water, and sprayed using a spray tower. The plants were placed on a greenhouse seedbed and cultured for 15 days, and the experimental results were then collected. The compound was applied at 120, 60, 30 and 15 g a.i./ha in triplicate, and the results were averaged.

[2] = test system: Echinochloa phyllopogon; experiment: as above; assay type: in vivo; settings: 120 g a.i./ha, 15 days, fresh weight control rate
Text: as §1, §2, §3

[3] = spray, seedling stage sealing for water-seeding

Compound | Echinochloa crusgalli activity level (growth control rate) ([1]; seedling stage sealing) | Echinochloa phyllopogon activity level (growth control rate) ([2]; seedling stage sealing) | Echinochloa crusgalli activity level (growth control rate) [1, 3] | Echinochloa phyllopogon activity level (growth control rate) [2, 3]
CN1C[C@H](c2cccc(C(F)(F)F)c2)[C@@H](C(=O)Nc2cnn(C)c2Cl)C1=O [1′] | 9 | 6 (Level 6: growth control rate greater than or equal to 70% and less than 80%) |  | 
CCn1ncc(NC(=O)[C@H]2C(=O)N(C)C[C@@H]2c2cccc(C(F)(F)F)c2)c1Cl [95′] | 9 | 8 (Level 8: growth control rate greater than or equal to 90% and less than 100%) |  | 
Cc1ccccc1[C@H]1CN(C)C(=O)[C@@H]1C(=O)Nc1cnn(C)c1Cl [124′] | 6 (Level 6: growth control rate greater than or equal to 70% and less than 80%) |  |  | 
CN1C[C@H](c2cccc(C(F)(F)F)c2)[C@@H](C(=O)Nc2cnn(C)c2N)C1=O [198′] | 5 (Level 5: growth control rate greater than or equal to 50% and less than 70%) |  |  | 
CO/N=C/c1cccc([C@H]2CN(C)C(=O)[C@@H]2C(=O)Nc2cnn(C)c2Cl)c1 [232′] | 6 (Level 6: growth control rate greater than or equal to 70% and less than 80%) |  |  | 
CC(C)c1ccc([C@H]2CN(C)C(=O)[C@@H]2C(=O)Nc2cnn(C)c2Cl)cc1 [245′] |  | 5 (Level 5: growth control rate greater than or equal to 50% and less than 70%) |  | 
COCc1ccc([C@H]2CN(C)C(=O)[C@@H]2C(=O)Nc2cnn(C)c2Cl)cc1 [253′] | 6 (Level 6: growth control rate greater than or equal to 70% and less than 80%) |  |  | 
CN1C[C@H](c2ccc(C(F)(F)F)c(F)c2Cl)[C@@H](C(=O)Nc2cnn(C)c2Cl)C1=O [329′] | 7 (Level 7: growth control rate greater than or equal to 80% and less than 90%) | 6 (Level 6: growth control rate greater than or equal to 70% and less than 80%) |  | 
Cc1ccc([C@H]2CN(C)C(=O)[C@@H]2C(=O)Nc2cnn(C)c2Cl)s1 [335′] | 7 (Level 7: growth control rate greater than or equal to 80% and less than 90%) |  |  | 
CN1C[C@H](c2cccc(Oc3ccccn3)c2)[C@@H](C(=O)Nc2cnn(C)c2Cl)C1=O [360′] | 7 (Level 7: growth control rate greater than or equal to 80% and less than 90%) |  |  | 
CSc1c(NC(=O)[C@H]2C(=O)N(C)C[C@@H]2c2cccc(C)c2)cnn1C [393′] | 9 | 9 |  | 
Cc1cccc([C@H]2CN(C)C(=O)[C@@H]2C(=O)Nc2cnn(C(F)F)c2C2CC2)c1 [395′] | 9 | 9 |  | 
CCc1c(NC(=O)[C@H]2C(=O)N(C)C[C@@H]2c2cccc(C(F)(F)F)c2)cnn1C(F)F [403′] | 9 | 9 |  | 
CN1C[C@H](c2cccc(C(F)(F)F)c2)[C@@H](C(=O)Nc2cnn(C)c2C(F)(F)F)C1=O [404′] | 9 | 9 |  | 
CN1C[C@H](c2cccc(OC(F)(F)F)c2)[C@@H](C(=O)Nc2cnn(C(F)F)c2Cl)C1=O [414′] | 9 | 9 |  | 
Cc1ccc([C@H]2CN(C)C(=O)[C@@H]2C(=O)Nc2cnn(C)c2C)cc1 [415′] | 9 | 9 |  | 

Compound | Echinochloa crusgalli activity level (growth control rate) ([1]; seedling stage sealing) | Echinochloa phyllopogon activity level (growth control rate) ([2]; seedling stage sealing) | Echinochloa crusgalli activity level (growth control rate) [1, 3] | Echinochloa phyllopogon activity level (growth control rate) [2, 3]
Cc1cc(C)cc([C@H]2CN(C)C(=O)[C@@H]2C(=O)Nc2cnn(C(F)F)c2C2CC2)c1 [429′] | 9 | 9 |  | 
CSc1c(NC(=O)[C@H]2C(=O)N(C)C[C@@H]2c2cc(C)cc(C)c2)cnn1C [431′] | 9 | 9 |  | 
Cc1cc(C)cc([C@H]2CN(C)C(=O)[C@@H]2C(=O)Nc2cnn(C)c2C#N)c1 [434′] | 9 | 9 |  | 
Cc1ccc([C@H]2CN(C)C(=O)[C@@H]2C(=O)Nc2cnn(C(F)F)c2Cl)cc1F [444′] |  |  | 9 | 9
Cc1cc(C)cc([C@H]2CN(C)C(=S)[C@@H]2C(=S)Nc2cnn(C)c2Cl)c1 [451′] |  |  | 8 (Level 8: growth control rate greater than or equal to 90% and less than 100%) | 7 (Level 7: growth control rate greater than or equal to 80% and less than 90%)
CCc1c(NC(=O)[C@H]2C(=O)N(C)C[C@@H]2c2cccc(C)c2)cnn1C(F)F [466′] |  |  | 9 | 9
CSc1c(NC(=O)[C@H]2C(=O)N(C)C[C@@H]2c2cccc(C(F)(F)F)c2)cnn1C [479′] |  |  | 9 | 9
Cc1cc([C@H]2CN(C)C(=O)[C@@H]2C(=O)Nc2cnn(C(F)F)c2Cl)cc(C)c1C [515′] |  |  | 9 | 9
C=C(C)c1ccc(C2CN(C)C(=O)C2C(=O)Nc2cnn(C)c2Cl)cc1 (stereo not shown) [Compound 252] | 7 (Level 7: growth control rate greater than or equal to 80% and less than 90%) | 9 |  | 
CN1CC(c2ccc(OC(F)(F)F)cc2)C(C(=O)Nc2cnn(C)c2Cl)C1=O (stereo not shown) [Compound 254] | 5 (Level 5: growth control rate greater than or equal to 50% and less than 70%) | 5 (Level 5: growth control rate greater than or equal to 50% and less than 70%) |  | 
CN1CC(c2ccc(-c3cccc(C(F)(F)F)c3)cc2)C(C(=O)Nc2cnn(C)c2Cl)C1=O (stereo not shown) [Compound 261] | 6 (Level 6: growth control rate greater than or equal to 70% and less than 80%) | 5 (Level 5: growth control rate greater than or equal to 50% and less than 70%) |  | 
COc1cc(OC)cc(C2CN(C)C(=O)C2C(=O)Nc2cnn(C)c2Cl)c1 (stereo not shown) [Compound 302] | 6 (Level 6: growth control rate greater than or equal to 70% and less than 80%) | 5 (Level 5: growth control rate greater than or equal to 50% and less than 70%) |  | 
CSc1c(C(F)(F)F)ccc(C2CN(C)C(=O)C2C(=O)Nc2cnn(C)c2Cl)c1Cl (stereo not shown) [Compound 330] | 6 (Level 6: growth control rate greater than or equal to 70% and less than 80%) | 5 (Level 5: growth control rate greater than or equal to 50% and less than 70%) |  | 
CN1CC(c2cc(F)cc(F)c2F)C(C(=O)Nc2cnn(C)c2Cl)C1=O (stereo not shown) [Compound 332] | 5 (Level 5: growth control rate greater than or equal to 50% and less than 70%) |  |  | 
CN1CC(c2ccc3occc3c2)C(C(=O)Nc2cnn(C)c2Cl)C1=O (stereo not shown) [Compound 355] | 5 (Level 5: growth control rate greater than or equal to 50% and less than 70%) |  |  | 
Cc1ccc(C2CN(C)C(=O)C2C(=O)Nc2cnn(C)c2C(F)(F)F)cc1C (stereo not shown) [Compound 488] |  |  | 9 | 9
